# Measurements taken from paper PMC5218480 (PLoS ONE, 2017).
# Tested on: MV-4-11 cells
# Test: Gene expression microarray analysis (Affymetrix PrimeView) and GSEA
# Type: cell-based, human
# Set-up: RFU PODN (11730768_x_at) / Fold change /veh PODN (11730768_x_at) / RFU LINC00158 (11744669_a_at) / Fold change /veh LINC00158 (11744669_a_at) / RFU DUSP10 (11751237_a_at) / Fold change /veh DUSP10 (11751237_a_at) / RFU ID3 (11757404_x_at) / Fold change /veh ID3 (11757404_x_at) / RFU PLEKHG5 (11737974_s_at) / Fold change /veh PLEKHG5 (11737974_s_at) / RFU LRRC4B (11730491_at) / Fold change /veh LRRC4B (11730491_at) / RFU GIMAP4 (11747438_a_at) / Fold change /veh GIMAP4 (11747438_a_at) / RFU KRT8 (11758183_x_at) / Fold change /veh KRT8 (11758183_x_at) / RFU CNN1 (11734310_a_at) / Fold change /veh CNN1 (11734310_a_at) / RFU VPS37D (11726825_at) / Fold change /veh VPS37D (11726825_at) / RFU C10orf10 (11716522_x_at) / Fold change /veh C10orf10 (11716522_x_at) / RFU KIR2DL2 /// KIR2DL4 /// KIR2DL5A /// KIR2DL5B /// KIR2DS1 /// KIR2DS2 /// KIR2DS3 /// KIR2DS4 /// KIR3DL3 /// KIR3DL3 /// KIR3DS1 (11738374_at) / Fold change /veh KIR2DL2 /// KIR2DL4 /// KIR2DL5A /// KIR2DL5B /// KIR2DS1 /// KIR2DS2 /// KIR2DS3 /// KIR2DS4 /// KIR3DL3 /// KIR3DL3 /// KIR3DS1 (11738374_at) / RFU C1QL1 (11718748_at) / Fold change /veh C1QL1 (11718748_at) / RFU TMPRSS4 (11747572_a_at) / Fold change /veh TMPRSS4 (11747572_a_at) / RFU HAMP (11756126_x_at) / Fold change /veh HAMP (11756126_x_at) / RFU RNFT2 (11725882_a_at) / Fold change /veh RNFT2 (11725882_a_at) / RFU NR4A2 (11747474_a_at) / Fold change /veh NR4A2 (11747474_a_at) / RFU ABCC12 (11746883_a_at) / Fold change /veh ABCC12 (11746883_a_at) / RFU TMEM136 (11760407_x_at) / Fold change /veh TMEM136 (11760407_x_at) / RFU CLDN22 /// WWC2 (11732394_at) / Fold change /veh CLDN22 /// WWC2 (11732394_at) / RFU HLA-DPB1 (11760878_x_at) / Fold change /veh HLA-DPB1 (11760878_x_at) / RFU SPINT1 (11716480_a_at) / Fold change /veh SPINT1 (11716480_a_at) / RFU GAP43 (11754022_s_at) / Fold change /veh GAP43 (11754022_s_at) / RFU A4GNT (11735810_at) / Fold change /veh A4GNT (11735810_at) / RFU PRB3 (11715151_x_at) / Fold change /veh PRB3 (11715151_x_at) / RFU TUBB4B (11761932_at) / Fold change /veh TUBB4B (11761932_at) / RFU CAPN14 (11732068_a_at) / Fold change /veh CAPN14 (11732068_a_at) / RFU TMCC2 (11721928_a_at) / Fold change /veh TMCC2 (11721928_a_at) / RFU IRGQ (11745062_a_at) / Fold change /veh IRGQ (11745062_a_at) / RFU FAM174B (11720279_a_at) / Fold change /veh FAM174B (11720279_a_at) / RFU TMPRSS4 (11748680_a_at) / Fold change /veh TMPRSS4 (11748680_a_at) / RFU FAM212B (11763350_a_at) / Fold change /veh FAM212B (11763350_a_at) / RFU PLEKHG5 (11743358_a_at) / Fold change /veh PLEKHG5 (11743358_a_at) / RFU ZSCAN30 (11745921_a_at) / Fold change /veh ZSCAN30 (11745921_a_at) / RFU CMKLR1 (11741424_a_at) / Fold change /veh CMKLR1 (11741424_a_at) / RFU LOC101060620 /// MAPK8IP1 (11723275_at) / Fold change /veh LOC101060620 /// MAPK8IP1 (11723275_at) / RFU SPTSSB (11747773_x_at) / Fold change /veh SPTSSB (11747773_x_at) / RFU PRSS12 (11739890_at) / Fold change /veh PRSS12 (11739890_at) / RFU BIN1 (11741810_x_at) / Fold change /veh BIN1 (11741810_x_at) / RFU WNT11 (11732464_a_at) / Fold change /veh WNT11 (11732464_a_at) / RFU C10orf10 (11716521_a_at) / Fold change /veh C10orf10 (11716521_a_at) / RFU C5orf56 (11738089_at) / Fold change /veh C5orf56 (11738089_at) / RFU CYB561 (11721691_x_at) / Fold change /veh CYB561 (11721691_x_at) / RFU ANKRD19P (11752326_a_at) / Fold change /veh ANKRD19P (11752326_a_at) / RFU OR2T12 /// OR2T33 /// OR2T8 (11738714_s_at) / Fold change /veh OR2T12 /// OR2T33 /// OR2T8 (11738714_s_at) / RFU VCAN (11748164_a_at) / Fold change /veh VCAN (11748164_a_at) / RFU JSRP1 (11732532_at) / Fold change /veh JSRP1 (11732532_at) / RFU KRTAP10-11 (11738290_x_at) / Fold change /veh KRTAP10-11 (11738290_x_at) / RFU MYO3A (11730013_a_at) / Fold change /veh MYO3A (11730013_a_at) / RFU EBF3 (11725865_a_at) / Fold change /veh EBF3 (11725865_a_at) / RFU CAMK2N1 (11719241_x_at) / Fold change /veh CAMK2N1 (11719241_x_at) / RFU C5orf56 (11738088_a_at) / Fold change /veh C5orf56 (11738088_a_at) / RFU OLFML3 (11715873_a_at) / Fold change /veh OLFML3 (11715873_a_at) / RFU LOC100653217 /// NTM (11731650_a_at) / Fold change /veh LOC100653217 /// NTM (11731650_a_at) / RFU MAPK11 (11762145_a_at) / Fold change /veh MAPK11 (11762145_a_at) / RFU FIZ1 (11724087_x_at) / Fold change /veh FIZ1 (11724087_x_at) / RFU OASL (11726364_x_at) / Fold change /veh OASL (11726364_x_at) / RFU SOX15 (11748057_x_at) / Fold change /veh SOX15 (11748057_x_at) / RFU CD79A (11719716_a_at) / Fold change /veh CD79A (11719716_a_at) / RFU HIST1H1D (11736915_at) / Fold change /veh HIST1H1D (11736915_at) / RFU CASKIN2 (11723855_a_at) / Fold change /veh CASKIN2 (11723855_a_at) / RFU LOC730098 (11760151_x_at) / Fold change /veh LOC730098 (11760151_x_at) / RFU OR4N2 (11742367_at) / Fold change /veh OR4N2 (11742367_at) / RFU PRRT2 (11749266_a_at) / Fold change /veh PRRT2 (11749266_a_at) / RFU SNX32 (11753110_a_at) / Fold change /veh SNX32 (11753110_a_at) / RFU CDHR5 (11726645_a_at) / Fold change /veh CDHR5 (11726645_a_at) / RFU RCAN1 (11760418_a_at) / Fold change /veh RCAN1 (11760418_a_at) / RFU FAM167A (11723789_a_at) / Fold change /veh FAM167A (11723789_a_at) / RFU FAM26E (11764081_at) / Fold change /veh FAM26E (11764081_at) / RFU ISYNA1 (11749810_s_at) / Fold change /veh ISYNA1 (11749810_s_at) / RFU ACY1 (11761880_at) / Fold change /veh ACY1 (11761880_at) / RFU 11764098_at / Fold change /veh 11764098_at / RFU SAMD14 (11745864_x_at) / Fold change /veh SAMD14 (11745864_x_at) / RFU NPB (11741838_a_at) / Fold change /veh NPB (11741838_a_at) / RFU TMPRSS6 (11731388_a_at) / Fold change /veh TMPRSS6 (11731388_a_at) / RFU KRTAP10-2 (11738614_at) / Fold change /veh KRTAP10-2 (11738614_at) / RFU ARHGAP8 /// PRR5-ARHGAP8 (11727945_x_at) / Fold change /veh ARHGAP8 /// PRR5-ARHGAP8 (11727945_x_at) / RFU KRTAP5-7 /// NADSYN1 (11734609_at) / Fold change /veh KRTAP5-7 /// NADSYN1 (11734609_at) / RFU RASL12 (11751679_a_at) / Fold change /veh RASL12 (11751679_a_at) / RFU CDKN2B (11736163_a_at) / Fold change /veh CDKN2B (11736163_a_at) / RFU PRF1 (11729649_at) / Fold change /veh PRF1 (11729649_at) / RFU, ZNF638 /// ZNF638-IT1 / Fold change vs veh, ZNF638 /// ZNF638-IT1 / RFU, PANK3 / Fold change vs veh, PANK3 / RFU, SH3YL1 / Fold change vs veh, SH3YL1 / RFU, ZEB2 / Fold change vs veh, ZEB2 / RFU, NRIP1 / Fold change vs veh, NRIP1 / RFU, PTTG1IP / Fold change vs veh, PTTG1IP / RFU, CAPN2 / Fold change vs veh, CAPN2 / RFU, MED14 / Fold change vs veh, MED14 / RFU, SNORA58 / Fold change vs veh, SNORA58 / RFU, C1orf63 / Fold change vs veh, C1orf63 / RFU, LRRFIP1 / Fold change vs veh, LRRFIP1 / RFU, NDUFAF7 / Fold change vs veh, NDUFAF7 / RFU, SLC12A2 / Fold change vs veh, SLC12A2 / RFU, IBTK / Fold change vs veh, IBTK / RFU, ESF1 / Fold change vs veh, ESF1 / Fold change vs veh, TMEM50B / RFU, TAOK1 / Fold change vs veh, TAOK1 / RFU, ACBD3 / Fold change vs veh, ACBD3 / RFU, TMA16 / Fold change vs veh, TMA16 / RFU, RWDD3 / Fold change vs veh, RWDD3 / RFU, BCAT1 / Fold change vs veh, BCAT1 / RFU, EDEM3 / Fold change vs veh, EDEM3 / RFU, TMEM33 / Fold change vs veh, TMEM33 / RFU, WDR75 / Fold change vs veh, WDR75 / RFU, AHCTF1 / Fold change vs veh, AHCTF1 / RFU, TFRC / Fold change vs veh, TFRC / RFU, ZDHHC17 / Fold change vs veh, ZDHHC17 / RFU, NOM1 / Fold change vs veh, NOM1 / RFU, ARL8B / Fold change vs veh, ARL8B / RFU, ZBTB11 / Fold change vs veh, ZBTB11 / RFU, TAMM41 / Fold change vs veh, TAMM41 / RFU, KIAA1704 /// LOC100996395 / Fold change vs veh, KIAA1704 /// LOC100996395 / RFU, ING1 / Fold change vs veh, ING1 / RFU, TRMT61B / Fold change vs veh, TRMT61B / RFU, FUBP3 / Fold change vs veh, FUBP3 / RFU, TP53 / Fold change vs veh, TP53 / RFU, TNKS2 / Fold change vs veh, TNKS2 / RFU, ZFP14 / Fold change vs veh, ZFP14 / RFU, ACTR2 / Fold change vs veh, ACTR2 / RFU, PPP3R1 / Fold change vs veh, PPP3R1 / RFU, PIK3R1 / Fold change vs veh, PIK3R1 / RFU, HNRNPA1 / Fold change vs veh, HNRNPA1 / RFU, RNF170 / Fold change vs veh, RNF170 / RFU, ZNF28 / Fold change vs veh, ZNF28 / RFU, RNGTT / Fold change vs veh, RNGTT / RFU, OGT / Fold change vs veh, OGT / RFU, BRD1 / Fold change vs veh, BRD1 / RFU, MARS / Fold change vs veh, MARS / RFU, ZNF655 / Fold change vs veh, ZNF655 / RFU, FAHD1 / Fold change vs veh, FAHD1 / RFU, BDP1 / Fold change vs veh, BDP1 / RFU, LRRCC1 / Fold change vs veh, LRRCC1 / RFU, ARID1A / Fold change vs veh, ARID1A / RFU, ZNF146 / Fold change vs veh, ZNF146 / RFU, ZNF330 / Fold change vs veh, ZNF330 / RFU, GPN3 / Fold change vs veh, GPN3 / RFU, C9orf123 / Fold change vs veh, C9orf123 / RFU, N4BP2L2 / Fold change vs veh, N4BP2L2 / RFU, ARFIP1 / Fold change vs veh, ARFIP1 / RFU, FAM179B / Fold change vs veh, FAM179B / RFU, BCL10 / Fold change vs veh, BCL10 / RFU, UHRF1BP1L / Fold change vs veh, UHRF1BP1L / RFU, BET1 / Fold change vs veh, BET1 / RFU, CNOT2 / Fold change vs veh, CNOT2 / RFU, ZNF268 / Fold change vs veh, ZNF268 / Fold change vs veh, ZNF507 / RFU, DGCR2 / Fold change vs veh, DGCR2 / RFU, WDSUB1 / Fold change vs veh, WDSUB1 / Fold change vs veh, HSP90B1 /// MIR3652 / RFU, ADSS / Fold change vs veh, ADSS / RFU, GK / Fold change vs veh, GK / RFU, ZNF148 / Fold change vs veh, ZNF148 / RFU, TAF9 / Fold change vs veh, TAF9 / RFU, SLC1A5 / Fold change vs veh, SLC1A5 / RFU, SLMO2 / Fold change vs veh, SLMO2 / RFU, ABCC4 / Fold change vs veh, ABCC4 / RFU, LOC101060439 /// RAP1B / Fold change vs veh, LOC101060439 /// RAP1B / RFU, RFX7 / Fold change vs veh, RFX7 / RFU, GTPBP10 / Fold change vs veh, GTPBP10 / RFU, CNEP1R1 / Fold change vs veh, CNEP1R1 / RFU, BIVM-ERCC5 /// ERCC5 / Fold change vs veh, BIVM-ERCC5 /// ERCC5 / RFU, ILF3 / Fold change vs veh, ILF3 / RFU 11762660_at / Fold change /veh 11762660_at / RFU VCAN (11757783_s_at) / Fold change /veh VCAN (11757783_s_at) / RFU DDX43 (11728927_at) / Fold change /veh DDX43 (11728927_at) / RFU KRT8 (11758188_x_at) / Fold change /veh KRT8 (11758188_x_at) / RFU NKD1 (11759106_at) / Fold change /veh NKD1 (11759106_at) / RFU SRD5A1 (11742802_a_at) / Fold change /veh SRD5A1 (11742802_a_at) / RFU TPSAB1 /// TPSB2 (11721975_s_at) / Fold change /veh TPSAB1 /// TPSB2 (11721975_s_at) / RFU GSTM3 (11746129_a_at) / Fold change /veh GSTM3 (11746129_a_at) / RFU IL23R (11737362_x_at) / Fold change /veh IL23R (11737362_x_at) / RFU TMEM51 (11727254_a_at) / Fold change /veh TMEM51 (11727254_a_at) / RFU PIWIL2 (11732686_x_at) / Fold change /veh PIWIL2 (11732686_x_at) / RFU ORM1 (11744905_x_at) / Fold change /veh ORM1 (11744905_x_at) / RFU CCDC152 (11743942_at) / Fold change /veh CCDC152 (11743942_at) / RFU ECM1 (11717891_a_at) / Fold change /veh ECM1 (11717891_a_at) / RFU IL23R (11748794_a_at) / Fold change /veh IL23R (11748794_a_at) / RFU TNFAIP8L3 (11732012_x_at) / Fold change /veh TNFAIP8L3 (11732012_x_at) / RFU MBOAT4 (11741988_at) / Fold change /veh MBOAT4 (11741988_at) / RFU 11764193_at / Fold change /veh 11764193_at / RFU TMEM53 (11763286_at) / Fold change /veh TMEM53 (11763286_at) / RFU MAGEB2 (11727129_at) / Fold change /veh MAGEB2 (11727129_at) / RFU TMEM200A (11744735_a_at) / Fold change /veh TMEM200A (11744735_a_at) / RFU CCDC152 (11751479_a_at) / Fold change /veh CCDC152 (11751479_a_at) / RFU FAM211A (11726209_a_at) / Fold change /veh FAM211A (11726209_a_at) / RFU RGS16 (11746705_a_at) / Fold change /veh RGS16 (11746705_a_at) / RFU VCAN (11755009_s_at) / Fold change /veh VCAN (11755009_s_at) / RFU RHOB (11743442_s_at) / Fold change /veh RHOB (11743442_s_at) / RFU RGS16 (11720943_a_at) / Fold change /veh RGS16 (11720943_a_at) / RFU RGS16 (11720944_at) / Fold change /veh RGS16 (11720944_at) / RFU, VPS4B / Fold change vs veh, VPS4B / RFU, CREB1 / Fold change vs veh, CREB1 / RFU, DNAJC13 / Fold change vs veh, DNAJC13 / RFU, GNAQ / Fold change vs veh, GNAQ / RFU, CDK5R1 / Fold change vs veh, CDK5R1 / RFU, ZRANB3 / Fold change vs veh, ZRANB3 / RFU, CUL4A / Fold change vs veh, CUL4A / RFU, CCNY / Fold change vs veh, CCNY / RFU, UFL1 / Fold change vs veh, UFL1 / RFU, COG3 / Fold change vs veh, COG3 / RFU, DIAPH2 / Fold change vs veh, DIAPH2 / RFU, SKA2 / Fold change vs veh, SKA2 / RFU, AFF3 / Fold change vs veh, AFF3 / RFU, LMF1 / Fold change vs veh, LMF1 / RFU, IPO11 / Fold change vs veh, IPO11 / RFU, DFFB / Fold change vs veh, DFFB / RFU, FOXP1 / Fold change vs veh, FOXP1 / RFU, CARD8 / Fold change vs veh, CARD8 / RFU, STRN3 / Fold change vs veh, STRN3 / RFU, ADK / Fold change vs veh, ADK / RFU, RASSF2 / Fold change vs veh, RASSF2 / RFU, WIPF1 / Fold change vs veh, WIPF1 / RFU, LARP1B / Fold change vs veh, LARP1B / RFU, RASA1 / Fold change vs veh, RASA1 / RFU, RB1 / Fold change vs veh, RB1 / RFU, PPFIA1 / Fold change vs veh, PPFIA1 / RFU, MAT2A / Fold change vs veh, MAT2A / RFU, CCT5 / Fold change vs veh, CCT5 / RFU, WDR92 / Fold change vs veh, WDR92 / RFU, CUX1 / Fold change vs veh, CUX1 / RFU, TTC7A / Fold change vs veh, TTC7A / RFU, TMEM135 / Fold change vs veh, TMEM135 / RFU, DEPTOR / Fold change vs veh, DEPTOR / RFU, CPM / Fold change vs veh, CPM / RFU, DNAJB6 / Fold change vs veh, DNAJB6 / RFU, CACNA2D3 / Fold change vs veh, CACNA2D3 / RFU, DTX4 / Fold change vs veh, DTX4 / RFU, TFCP2 / Fold change vs veh, TFCP2 / RFU, GMCL1 /// GMCL1P1 / Fold change vs veh, GMCL1 /// GMCL1P1 / RFU, AEBP2 / Fold change vs veh, AEBP2 / RFU, SNHG1 /// SNORD22 /// SNORD25 /// SNORD26 /// SNORD27 /// SNORD28 /// SNORD29 /// SNORD31 / Fold change vs veh, SNHG1 /// SNORD22 /// SNORD25 /// SNORD26 /// SNORD27 /// SNORD28 /// SNORD29 /// SNORD31 / Fold change (Aza/veh), C12orf56 (ProbeSet 11735607_a_at) / Fold change (ACY-1035/veh), C12orf56 (ProbeSet 11735607_a_at) / Fold change (Aza/veh), FGFR1OP (ProbeSet 11751329_s_at) / Fold change (ACY-1035/veh), FGFR1OP (ProbeSet 11751329_s_at) / Fold change (Aza/veh), VPS36 (ProbeSet 11739960_a_at) / Fold change (ACY-1035/veh), VPS36 (ProbeSet 11739960_a_at) / RFU SYPL1 (11715823_x_at) / Fold change /veh SYPL1 (11715823_x_at) / RFU IGFBP7 (11715501_s_at) / Fold change /veh IGFBP7 (11715501_s_at) / RFU REEP3 (11722064_at) / Fold change /veh REEP3 (11722064_at) / RFU IGLL1 (11728026_x_at) / Fold change /veh IGLL1 (11728026_x_at): dose or concentration left out as unconfirmed
# Conditions: MV-4-11 cells, 48 hours
compound,measurement,value
Nc1ncn([C@@H]2O[C@H](CO)[C@@H](O)[C@H]2O)c(=O)n1 [azacitidine],RFU KRTAP10-2 (11738614_at),10.93 RFU
